# Measurements from US20260062422A1 (Halda Therapeutics OpCo, Inc., priority 2022, published 2026).
# Target: T1, BRD4-BD2 (Homo sapiens, UniProt O60885)
# T1 construct: made in house; host or cells: T7 phage grown in an E. coli host derived from BL21
# Test: bromoKdELECT assay for binding affinity to BRD4-BD2
# Conditions: Table 7
# Description: Compounds were tested using a bromoKdELECT assay. T7 phage strains displaying bromodomains were grown in parallel in 24-well blocks in an E. coli host derived from the BL21 strain. E. coli were grown to log-phase and infected with T7 phage from a frozen stock (multiplicity of infection=0.4) and incubated with shaking at 32° C. until lysis (90-150 minutes). The lysates were centrifuged (5,000×g) and filtered (0.2 μm) to remove cell debris. Streptavidin-coated magnetic beads were treated with biotinylated small molecule or acetylated peptide ligands for 30 minutes at room temperature to generate affinity resins for bromodomain assays. The liganded beads were blocked with excess biotin and washed with blocking buffer (SeaBlock (Pierce), 1% BSA, 0.05% Tween 20, 1 mM DTT) to remove unbound ligand and to reduce nonspecific phage binding. Binding reactions were assembled by combining bromodomains, liganded affinity beads, and test compounds in 1× binding buffer (17% SeaBlock, 0.33×PBS, 0.04% Tween 20, 0.02% BSA, 0.004% Sodium azide, 7.4 mM DTT). Test compounds were prepared as 1000× stocks in 100% DMSO. Kds were determined using an 11-point 3-fold compound dilution series with one DMSO control point. All compounds for Kd measurements are distributed by acoustic transfer (non-contact dispensing) in 100% DMSO. The compounds were then diluted directly into the assays such that the final concentration of DMSO was 0.09%. All reactions performed in polypropylene 384-well plates. Each was a final volume of 0.02 ml. The assay plates were incubated at room temperature with shaking for 1 hour and the affinity beads were washed with wash buffer (1×PBS, 0.05% Tween 20). The beads were then resuspended in elution buffer (1×PBS, 0.05% Tween 20, 2 μM non-biotinylated affinity ligand) and incubated at room temperature with shaking for 30 minutes. The bromodomain concentration in the eluates was measured by qPCR.
row,Structure (SMILES),Kd [nM]
1,CCNC(=O)C[C@@H]1N=C(c2ccc(CCCC3CCN(c4ncc(C(=O)N[C@H]5C(C)(C)[C@H](Oc6ccc(C#N)c(Cl)c6)C5(C)C)cn4)CC3)cc2)c2c(sc(C)c2C)-n2c(C)nnc21 [Compound I-95],> 2500
2,"CCNC(=O)C[C@@H]1N=C(c2ccc(N3CCN(CC4CCN(c5ncc(C(=O)N[C@H]6C(C)(C)[C@H](Oc7ccc(C#N)c(Cl)c7)C6(C)C)cn5)CC4)CC3)cc2)c2c(sc(C)c2C)-n2c(C)nnc21 [Compound I-105, N-[3-(3-chloro-4-cyano-phenoxy)-2,2,4,4-tetramethyl-cyclobutyl]-2-[4-[[4-[4-[(9S)-9-[2-(ethylamino)-2-oxo-ethyl]-4,5,13-trimethyl-3-thia-1,8,11,12-tetrazatricyclo[8.3.0.02,6]trideca-2(6),4,7,10,12-pentaen-7-yl]phenyl]piperazin-1-yl]methyl]-1-piperidyl]pyrimidine-5-carboxamide]",50 to 500
3,Cc1sc2c(c1C)C(c1ccc(CCCOC3CCN(c4ncc(C(=O)N[C@H]5C(C)(C)[C@H](Oc6ccc(C#N)c(Cl)c6)C5(C)C)cn4)CC3)cc1)=N[C@@H](CC(=O)NC(C)C)c1nnc(C)n1-2 [Compound I-100],500 to 2500
4,"Cc1sc2c(c1C)C(c1ccc(CCCOC3CCN(c4ncc(C(=O)N[C@H]5C(C)(C)[C@H](Oc6ccc(C#N)c(Cl)c6)C5(C)C)cn4)CC3)cc1)=N[C@@H](C)c1nnc(C)n1-2 [Compound I-228, N-[3-(3-chloro-4-cyano-phenoxy)-2,2,4,4-tetramethyl-cyclobutyl]-2-[4-[3-[4-[(9S)-4,5,9,13-tetramethyl-3-thia-1,8,11,12-tetrazatricyclo [8.3.0.02,6]trideca-2(6),4,7,10,12-pentaen-7-yl]phenyl]propoxy]-1-piperidyl]pyrimidine-5-carboxamide]",> 2500
5,CCNC(=O)C[C@@H]1N=C(c2ccc(OCCOC3CCN(c4ncc(C(=O)N[C@H]5C(C)(C)[C@H](Oc6ccc(C#N)c(Cl)c6)C5(C)C)cn4)CC3)c(F)c2)c2c(sc(C)c2C)-n2c(C)nnc21 [Compound I-76],50 to 500
6,"Cc1sc2c(c1C)C(c1ccc(OCCOC3CCN(c4ncc(C(=O)N[C@H]5C(C)(C)[C@H](Oc6ccc(C#N)c(Cl)c6)C5(C)C)cn4)CC3)cc1)=N[C@@H](CC(=O)OC(C)(C)C)c1nnc(C)n1-2 [Compound I-235, tert-butyl 2-((S)-4-(4-(2-((1-(5-(((1r,3r)-3-(3-chloro-4-cyanophenoxy)-2,2,4,4-tetramethylcyclobutyl)carbamoyl)pyrimidin-2-yl)piperidin-4-yl)oxy)ethoxy)phenyl)-2,3,9-trimethyl-6H-thieno[3,2-f][1,2,4]triazolo[4,3-a][1,4]diazepin-6-yl)acetate]",> 2500
7,CCNC(=O)C[C@@H]1N=C(c2ccc(N3CCC(N(C)C4CCN(c5ncc(C(=O)N[C@H]6C(C)(C)[C@H](Oc7ccc(C#N)c(Cl)c7)C6(C)C)cn5)CC4)CC3)cc2)c2c(sc(C)c2C)-n2c(C)nnc21 [Compound I-113],50 to 500
8,CCN(C)C(=O)C[C@@H]1N=C(c2ccc(OCCOC3CCN(c4ncc(C(=O)N[C@H]5C(C)(C)[C@H](Oc6ccc(C#N)c(Cl)c6)C5(C)C)cn4)CC3)cc2)c2c(sc(C)c2C)-n2c(C)nnc21 [Compound I-66],500 to 2500
9,CCNC(=O)C[C@@H]1N=C(c2ccc(OCCOC3CCN(c4ncc(C(=O)N[C@H]5C(C)(C)[C@H](Oc6ccc(C#N)c(Cl)c6)C5(C)C)cn4)CC3)c(F)c2F)c2c(sc(C)c2C)-n2c(C)nnc21 [Compound I-73],50 to 500
10,Cc1sc2c(c1C)C(c1ccc(Cl)cc1)=N[C@@H](CC(=O)NCCOCCOCCOC1CCN(c3ncc(C(=O)N[C@H]4C(C)(C)[C@H](Oc5ccc(C#N)c(Cl)c5)C4(C)C)cn3)CC1)c1nnc(C)n1-2 [Compound I-7],< 50
11,CCNC(=O)C[C@@H]1N=C(c2ccc(N(C)C3CN(CC4CCN(c5ncc(C(=O)N[C@H]6C(C)(C)[C@H](Oc7ccc(C#N)c(Cl)c7)C6(C)C)cn5)CC4)C3)cc2)c2c(sc(C)c2C)-n2c(C)nnc21 [Compound I-119],50 to 500
12,"CCNC(=O)C[C@@H]1N=C(c2ccc(OCCOC3CCN(c4ncc(C(=O)N[C@H]5C(C)(C)[C@H](Oc6ccc(C#N)c(Cl)c6)C5(C)C)cn4)CC3)cc2)c2c(sc(C)c2C)-n2c(C)nnc21 [Compound I-60, N-((1r,3r)-3-(3-chloro-4-cyanophenoxy)-2,2,4,4-tetramethylcyclobutyl)-2-(4-(2-(4-((S)-6-(2-(ethylamino)-2-oxoethyl)-2,3,9-trimethyl-6H-thieno[3,2-f][1,2,4]triazolo[4,3-a][1,4]diazepin-4-yl)phenoxy)ethoxy)piperidin-1-yl)pyrimidine-5-carboxamide]",50 to 500
13,CCNC(=O)C[C@@H]1N=C(c2ccc(N3CCC(OC4CCN(c5ncc(C(=O)N[C@H]6C(C)(C)[C@H](Oc7ccc(C#N)c(Cl)c7)C6(C)C)cn5)CC4)CC3)cc2)c2c(sc(C)c2C)-n2c(C)nnc21 [Compound I-114],500 to 2500
14,"COCC[C@@H]1N=C(c2ccc(CCCOC3CCN(c4ncc(C(=O)N[C@H]5C(C)(C)[C@H](Oc6ccc(C#N)c(Cl)c6)C5(C)C)cn4)CC3)cc2)c2c(sc(C)c2C)-n2c(C)nnc21 [Compound I-227, N-[3-(3-chloro-4-cyano-phenoxy)-2,2,4,4-tetramethyl-cyclobutyl]-2-[4-[3-[4-[(9S)-9-(2-methoxyethyl)-4,5,13-trimethyl-3-thia-1,8,11,12-tetrazatricyclo[8.3.0.02,6]trideca-2(6),4,7,10,12-pentaen-7-yl]phenyl]propoxy]-1-piperidyl]pyrimidine-5-carboxamide]",> 2500
15,CCNC(=O)C[C@@H]1N=C(c2ccc(N(C)CCN3CCN(c4ncc(C(=O)N[C@H]5C(C)(C)[C@H](Oc6ccc(C#N)c(Cl)c6)C5(C)C)cn4)CC3)cc2)c2c(sc(C)c2C)-n2c(C)nnc21 [Compound I-108],500 to 2500
16,CCNC(=O)C[C@@H]1N=C(c2ccc(N(C)CC3CN(c4ncc(C(=O)N[C@H]5C(C)(C)[C@H](Oc6ccc(C#N)c(Cl)c6)C5(C)C)cn4)C3)cc2)c2c(sc(C)c2C)-n2c(C)nnc21 [Compound I-107],50 to 500
17,CCNC(=O)C[C@@H]1N=C(c2ccc(OCCOC3CCN(c4ncc(C(=O)N[C@H]5C(C)(C)[C@H](Oc6ccc(C#N)c(Cl)c6)C5(C)C)cn4)CC3)cc2F)c2c(sc(C)c2C)-n2c(C)nnc21 [Compound I-75],50 to 500
18,Cc1sc2c(c1C)C(c1ccc(CCCOC3CCN(c4ncc(C(=O)N[C@H]5C(C)(C)[C@H](Oc6ccc(C#N)c(Cl)c6)C5(C)C)cn4)CC3)cc1)=N[C@@H](CC(=O)NC1CC1)c1nnc(C)n1-2 [Compound I-102],50 to 500
19,"Cc1sc2c(c1C)C(c1ccc(CCCOC3CCN(c4ncc(C(=O)N[C@H]5C(C)(C)[C@H](Oc6ccc(C#N)c(Cl)c6)C5(C)C)cn4)CC3)cc1)=N[C@@H](Cc1ncco1)c1nnc(C)n1-2 [Compound I-131, N-[3-(3-chloro-4-cyano-phenoxy)-2,2,4,4-tetramethyl-cyclobutyl]-2-[4-[3-[4-[(9S)-4,5,13-trimethyl-9-(oxazol-2-ylmethyl)-3-thia-1,8,11,12-tetrazatricyclo[8.3.0.02,6]trideca-2(6),4,7,10,12-pentaen-7-yl]phenyl]propoxy]-1-piperidyl]pyrimidine-5-carboxamide]",> 2500
20,CCN(C)C(=O)C[C@@H]1N=C(c2ccc(CCCOC3CCN(c4ncc(C(=O)N[C@H]5C(C)(C)[C@H](Oc6ccc(C#N)c(Cl)c6)C5(C)C)cn4)CC3)cc2)c2c(sc(C)c2C)-n2c(C)nnc21 [Compound I-101],> 2500
